Test results taken from PubChem BioAssay (NCI).
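Grown in 96-well plates, cells were treated for 48 hours with each compound at five concentrations. Insufficient inhibition: endpoint recorded as highest concentration tested. Abbreviation: GI50, concentration required for 50% inhibition of growth. TGI: total growth inhibition.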

How the values were obtained:
Assay in all cases: inhibition of tumour cell growth, NCI panel, 48 h
RXF 393 renal = test system: RXF 393 renal
LOX IMVI melanoma = test system: LOX IMVI melanoma
SK-MEL-28 melanoma = test system: SK-MEL-28 melanoma
UO-31 renal = test system: UO-31 renal
SN12C renal = test system: SN12C renal
SNB-75 CNS = test system: SNB-75 CNS
UACC-257 melanoma = test system: UACC-257 melanoma
SF-539 CNS = test system: SF-539 CNS
DU-145 prostate = test system: DU-145 prostate
A498 renal = test system: A498 renal
NCI-H23 lung = test system: NCI-H23 lung
CAKI-1 renal = test system: CAKI-1 renal
SK-MEL-5 melanoma = test system: SK-MEL-5 melanoma
HCT-15 colon = test system: HCT-15 colon
HT29 colon = test system: HT29 colon
SW-620 colon = test system: SW-620 colon
SF-295 CNS = test system: SF-295 CNS
KM12 colon = test system: KM12 colon
RPMI-8226 leukemia = test system: RPMI-8226 leukemia
HCC-2998 colon = test system: HCC-2998 colon
SK-OV-3 ovarian = test system: SK-OV-3 ovarian
MDA-MB-231 breast = test system: MDA-MB-231 breast
MDA-MB-435 = test system: MDA-MB-435
OVCAR-3 ovarian = test system: OVCAR-3 ovarian
NCI-H522 lung = test system: NCI-H522 lung
786-0 renal = test system: 786-0 renal
EKVX NSCLC = test system: EKVX NSCLC
SF-268 CNS = test system: SF-268 CNS
K-562 leukemia = test system: K-562 leukemia
OVCAR-8 ovarian = test system: OVCAR-8 ovarian
MOLT-4 leukemia = test system: MOLT-4 leukemia
SNB-19 CNS = test system: SNB-19 CNS
COLO 205 colon = test system: COLO 205 colon
NCI/ADR-RES ovarian = test system: NCI/ADR-RES ovarian
U251 CNS = test system: U251 CNS
HOP-92 NSCLC = test system: HOP-92 NSCLC
ACHN renal = test system: ACHN renal
HOP-62 NSCLC = test system: HOP-62 NSCLC
HS 578T breast = test system: HS 578T breast
M14 melanoma = test system: M14 melanoma
T-47D breast = test system: T-47D breast
MALME-3M melanoma = test system: MALME-3M melanoma
BT-549 breast = test system: BT-549 breast
A549 NSCLC = test system: A549 NSCLC
IGROV1 ovarian = test system: IGROV1 ovarian
HL-60(TB) leukemia = test system: HL-60(TB) leukemia
SK-MEL-2 melanoma = test system: SK-MEL-2 melanoma
MCF7 breast = test system: MCF7 breast
TK-10 renal = test system: TK-10 renal
NCI-H226 lung = test system: NCI-H226 lung
PC-3 prostate = test system: PC-3 prostate
NCI-H460 lung = test system: NCI-H460 lung
OVCAR-5 ovarian = test system: OVCAR-5 ovarian
OVCAR-4 ovarian = test system: OVCAR-4 ovarian
HCT-116 colon = test system: HCT-116 colon
UACC-62 melanoma = test system: UACC-62 melanoma
CCRF-CEM leukemia = test system: CCRF-CEM leukemia

COc1ccc(-n2c(SCC(=O)Nc3ccc(-c4nc5ccccc5[nH]4)cc3)nc3ccccc3c2=O)cc1
GI50 (RXF 393 renal): 12.7 µM | TGI (RXF 393 renal): 27.3 µM | GI50 (LOX IMVI melanoma): 2.1 µM | TGI (LOX IMVI melanoma): 3.91 µM | GI50 (SK-MEL-28 melanoma): 3.52 µM | TGI (SK-MEL-28 melanoma): 13.4 µM | GI50 (UO-31 renal): 11.8 µM | TGI (UO-31 renal): 29.1 µM | GI50 (SN12C renal): 11.3 µM | TGI (SN12C renal): 25.6 µM | GI50 (SNB-75 CNS): 19.9 µM | TGI (SNB-75 CNS): 91.9 µM | GI50 (UACC-257 melanoma): 19 µM | TGI (UACC-257 melanoma): 39.2 µM | GI50 (SF-539 CNS): 14.1 µM | TGI (SF-539 CNS): 27.8 µM | GI50 (DU-145 prostate): 10.9 µM | TGI (DU-145 prostate): 33 µM | GI50 (A498 renal): > 100 µM | TGI (A498 renal): > 100 µM | GI50 (NCI-H23 lung): 10.2 µM | TGI (NCI-H23 lung): 35.1 µM | GI50 (CAKI-1 renal): 29.7 µM | TGI (CAKI-1 renal): > 100 µM | GI50 (SK-MEL-5 melanoma): 14 µM | TGI (SK-MEL-5 melanoma): 30.4 µM | GI50 (HCT-15 colon): 2.95 µM | TGI (HCT-15 colon): 12 µM | GI50 (HT29 colon): 15 µM | TGI (HT29 colon): 36.5 µM | GI50 (SW-620 colon): 6.63 µM | TGI (SW-620 colon): 42.5 µM | GI50 (SF-295 CNS): 13.3 µM | TGI (SF-295 CNS): 27.9 µM | GI50 (KM12 colon): 51.4 µM | TGI (KM12 colon): > 100 µM | GI50 (RPMI-8226 leukemia): 3.72 µM | TGI (RPMI-8226 leukemia): 70.5 µM | GI50 (HCC-2998 colon): 14.3 µM | TGI (HCC-2998 colon): 46 µM | GI50 (SK-OV-3 ovarian): > 100 µM | TGI (SK-OV-3 ovarian): > 100 µM | GI50 (MDA-MB-231 breast): 16.2 µM | TGI (MDA-MB-231 breast): 49.6 µM | GI50 (MDA-MB-435): 9.17 µM | TGI (MDA-MB-435): 27.6 µM | GI50 (OVCAR-3 ovarian): 18 µM | TGI (OVCAR-3 ovarian): 39.7 µM | GI50 (NCI-H522 lung): 14.5 µM | TGI (NCI-H522 lung): 32.3 µM | GI50 (786-0 renal): 17.7 µM | TGI (786-0 renal): 34.2 µM | GI50 (EKVX NSCLC): 47.2 µM | TGI (EKVX NSCLC): > 100 µM | GI50 (SF-268 CNS): 42.9 µM | TGI (SF-268 CNS): > 100 µM | GI50 (K-562 leukemia): 4.82 µM | TGI (K-562 leukemia): > 100 µM | GI50 (OVCAR-8 ovarian): 18.1 µM | TGI (OVCAR-8 ovarian): 39.6 µM | GI50 (MOLT-4 leukemia): 5.85 µM | TGI (MOLT-4 leukemia): > 100 µM | GI50 (SNB-19 CNS): 17.9 µM | TGI (SNB-19 CNS): 60.2 µM | GI50 (COLO 205 colon): 28.3 µM | TGI (COLO 205 colon): 76.6 µM | GI50 (NCI/ADR-RES ovarian): 16.7 µM | TGI (NCI/ADR-RES ovarian): > 100 µM | GI50 (U251 CNS): 15.1 µM | TGI (U251 CNS): 31.5 µM | GI50 (HOP-92 NSCLC): 12.7 µM | TGI (HOP-92 NSCLC): 31.3 µM | GI50 (ACHN renal): 17.1 µM | TGI (ACHN renal): 33.7 µM | GI50 (HOP-62 NSCLC): 23.3 µM | TGI (HOP-62 NSCLC): 59.6 µM | GI50 (HS 578T breast): 21.6 µM | TGI (HS 578T breast): 71.5 µM | GI50 (M14 melanoma): 13.1 µM | TGI (M14 melanoma): 55.5 µM | GI50 (T-47D breast): 17.3 µM | TGI (T-47D breast): 36.7 µM | GI50 (MALME-3M melanoma): 2.58 µM | TGI (MALME-3M melanoma): 16.2 µM | GI50 (BT-549 breast): 8.06 µM | TGI (BT-549 breast): 24.5 µM | GI50 (A549 NSCLC): 3.58 µM | TGI (A549 NSCLC): 14.2 µM | GI50 (IGROV1 ovarian): 15.2 µM | TGI (IGROV1 ovarian): 42.9 µM | GI50 (HL-60(TB) leukemia): 9.91 µM | TGI (HL-60(TB) leukemia): > 100 µM | GI50 (SK-MEL-2 melanoma): 50.7 µM | TGI (SK-MEL-2 melanoma): > 100 µM | GI50 (MCF7 breast): 2.05 µM | TGI (MCF7 breast): 5.11 µM | GI50 (TK-10 renal): 21.6 µM | TGI (TK-10 renal): 42 µM | GI50 (NCI-H226 lung): > 100 µM | TGI (NCI-H226 lung): > 100 µM | GI50 (PC-3 prostate): 18 µM | TGI (PC-3 prostate): 62.9 µM | GI50 (NCI-H460 lung): 3.39 µM | TGI (NCI-H460 lung): 12.1 µM | GI50 (OVCAR-5 ovarian): 23.7 µM | TGI (OVCAR-5 ovarian): > 100 µM | GI50 (OVCAR-4 ovarian): 7.74 µM | TGI (OVCAR-4 ovarian): 20.8 µM | GI50 (HCT-116 colon): 4.88 µM | TGI (HCT-116 colon): 26.2 µM | GI50 (UACC-62 melanoma): 15.8 µM | TGI (UACC-62 melanoma): 30.5 µM | GI50 (CCRF-CEM leukemia): 6.15 µM | TGI (CCRF-CEM leukemia): > 100 µM
